Test results taken from US11285132B2, “Uses of indolinone compounds” (Oncternal Therapeutics, Inc., priority 2016, dated 2022).

What was measured:
snoRNAs = assay: Gene expression profiling (Illumina HumanHT 12) of ABC DLBCL cell lines; format: cell-based; settings: 500 nM, 4-8 h; two ABC DLBCL cell lines
Method: (§1) Cell lines were exposed to YK-4-279 or TK-216, alone or in combination with other compounds, for 72 h using a Tecan D300e Digital Dispenser and 96 well plates. Cell proliferation was measured with MTT. Synergy was determined with the Chou-Talalay combination index. Gene expression profiling (GEP) was performed with the Illumina HumanHT 12 Expression BeadChips. In vivo studies were done in NOD-SCID mice and treatments started with 60 mm3 tumor volumes sc.
With the aim to understand the mechanism of action of YK-4-279 and TK-216, the baseline RNA expression levels of the different ETS factors were correlated with sensitivity to the drugs. SPIB was the gene presenting the most significant negative correlation with both YK-4-279 and TK-216, especially among the ABC DLBCL cell lines (P<0.05). SPIB is a known oncogene for ABC DLBCL (Lenz et al, PNAS 2008) and is involved in the response to lenalidomide in ABC DLBCL (Yang et al, Cancer Cell 2012). YK-4-279 inhibits the binding of EWS1-FLI1 to the helicases RHA and DDX5 (Selvanathan et al, PNAS 2012). Thus, it was assessed whether YK-4-279 and TK-216 can have a similar effect on SPIB and whether they induce cellular effects similar to lenalidomide. […] In ABC DLBCL, the ETS inhibitor YK-4-279 and its clinical derivative TK-216 interfere with SPIB and helicases involved in RNA editing. […]

MOLM-16 = assay: 72 hr CellTiter-Glo, AML cell line; format: cell-based
HL-60 = assay: 72 hr CellTiter-Glo, AML cell line; format: cell-based
THP-1 = assay: 72 hr CellTiter-Glo, AML cell line; format: cell-based
MOLM-13 = assay: 72 hr CellTiter-Glo, AML cell line; format: cell-based
Kasumi-1 = assay: 72 hr CellTiter-Glo, AML cell line; format: cell-based
ML-2 = assay: 72 hr CellTiter-Glo, AML cell line; format: cell-based
SPIB to RHA = biological target: T1, SPIB to RHA (Homo sapiens, UniProt Q01892); assay: Co-IP of SPIB with helicases in ABC DLBCL cell lines; format: cell-based; settings: 500 nM, 4-10 h
T1 construct: endogenous in cells
Description: (§2) With the aim to understand the mechanism of action of YK-4-279 and TK-216, the baseline RNA expression levels of the different ETS factors were correlated with sensitivity to the drugs. SPIB was the gene presenting the most significant negative correlation with both YK-4-279 and TK-216, especially among the ABC DLBCL cell lines (P<0.05). SPIB is a known oncogene for ABC DLBCL (Lenz et al, PNAS 2008) and is involved in the response to lenalidomide in ABC DLBCL (Yang et al, Cancer Cell 2012). YK-4-279 inhibits the binding of EWS1-FLI1 to the helicases RHA and DDX5 (Selvanathan et al, PNAS 2012). Thus, it was assessed whether YK-4-279 and TK-216 can have a similar effect on SPIB and whether they induce cellular effects similar to lenalidomide. […] In ABC DLBCL, the ETS inhibitor YK-4-279 and its clinical derivative TK-216 interfere with SPIB and helicases involved in RNA editing. Moreover, both compounds act similarly to lenalidomide inhibiting IRF4 and upregulating IRF7 and synergize with the IMID in both ABC DLBCL and MCL.

SPIB to DDX5 = biological target: T2, SPIB to DDX5 (Homo sapiens, UniProt Q01892); assay: as above; format: cell-based; settings: 500 nM, 4-10 h
T2 construct: endogenous in cells
Description: as §2

TMD8 cells xenografts = assay: TMD8 ABC-DLBCL xenograft in NOD-SCID mice; format: in vivo; settings: 100 mg/Kg, BID; n=9
Method: NOD-Scid mice subcutaneously inoculated with TMD8 cells (15×10^6) were split in two groups respectively treated with TK-216 (100 mg/kg, BID, po, n=9) and control vehicle (n=10). In each box-plot, the line in the middle of the box represents the median and the box extends from the 25th to the 75th percentile (interquartile range, IQ); the whiskers extend to the upper and lower adjacent values (i.e., ±1.5 IQ).
56 lymphoma cell lines [27 diffuse large B cell lymphoma (DLBCL); 10 mantle cell lymphoma; 6 marginal zone lymphoma; 5 anaplastic large T-cell lymphoma; 8 others] were exposed to TK-216 increasing doses for 72 h using a Tecan D300e Digital Dispenser and 384 well plates. Cell proliferation was measured with MTT. In vivo study was done in NOD-SCID mice; treatments were started with approximately sc 60 mm3 tumor volumes. Sensitivity was not affected by the lymphoma cell of origin (B vs T; activated B cell type DLBCL versus germinal center type DLBCL) or MYC and TP53 status. There was a non-statistically significant trend for lower sensitivity in cell lines bearing BCL2 chromosomal translocation (P=0.07, DLBCL only; P=0.06, all cell lines).
(§3) The latter synergism could be linked to the previously mentioned negative trend between TK-216 IC50 values and the presence of BCL2 translocation.
as §1

DLBCL cell lines = assay: Combination with other targeted agents, summary over DLBCL cell lines; format: cell-based; settings: with lenalidomide; four DLBCL cell lines (2 ABC, 2 GCB)
Method: as §3, §1
Since lenalidomide is active in mantle cell lymphoma (MCL), the synergism of the combination of TK-216 and lenalidomide was confirmed also in two MCL cell lines.

T1 sequence (Q01892 whole entry): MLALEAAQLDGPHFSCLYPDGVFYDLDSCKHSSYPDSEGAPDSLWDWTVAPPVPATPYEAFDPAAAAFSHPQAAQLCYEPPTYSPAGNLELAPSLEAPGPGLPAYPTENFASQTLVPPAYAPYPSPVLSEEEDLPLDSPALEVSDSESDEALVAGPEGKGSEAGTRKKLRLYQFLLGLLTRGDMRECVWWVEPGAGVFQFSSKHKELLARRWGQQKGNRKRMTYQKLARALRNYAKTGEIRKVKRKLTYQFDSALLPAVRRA
T2 sequence (Q01892 whole entry): as above

With `COc1ccc(C(=O)C[C@@]2(O)C(=O)Nc3c(Cl)ccc(Cl)c32)cc1` [(S)-YK-4-279] the “snoRNA expression (GEP)” value (snoRNAs) was “important upregulation of multiple snoRNAs”.
Work on `N.N.[Cl][Pt][Cl]` [Cisplatin, reference compound] yielded an IC50 (MOLM-16) of 2190 nM, an IC50 (HL-60) of 1930 nM and an IC50 (THP-1) of 1360 nM. For the same compound, the IC50 (MOLM-13) was 798 nM, the IC50 (Kasumi-1) was 4560 nM and the IC50 (ML-2) was 1400 nM.
With `COc1ccc(C(=O)CC2(O)C(=O)Nc3c(Cl)ccc(Cl)c32)cc1` (centres unmarked) [YK-4-279, 4,7-dichloro-3-hydroxy-3-(2-(4-methoxyphenyl)-2-oxoethyl)indolin-2-one, reference compound] the “binding of SPIB to RHA” value (SPIB to RHA) was “decreased”, the “binding of SPIB to DDX5” value (SPIB to DDX5) was “to a lesser extent, to DDX5 was decreased” and the “tumor growth compared with control group” value (TMD8 cells xenografts) was “reduction in tumor growth”. For the same compound, the “combination of YK-4-279 plus lenalidomide” value (DLBCL cell lines) was “synergism in both ABC DLBCL”.
